Assay results taken from a melting point compilation (Tetko et al.; mined from patent text by program, amines drawn as free bases though some values may be those of a salt).

| melting point [°C] | Structure (SMILES) |
| --- | --- |
| 100 to 101 | OC1(c2ccc(F)cc2)CCN(CCCc2noc3cc(F)ccc23)CC1 |
| 162 to 164 | CN(C)CC=Cc1ccc2c(c1)CCCN2C(=O)c1ccc(-c2ccc(Cl)cc2)cc1 |
| 152 | CNc1cc(OCC(O)CN2C(=O)CCC2=O)ccc1[N+](=O)[O-] (stereo not drawn) |
| > 250 | COc1ccc(S(=O)(=O)N2CCc3[nH]c4c(cnc5cc(Cl)ccc54)c3C2)cc1 |
| 162 to 169 | CC1Oc2ccc(CCl)cc2NC1=O (stereo not drawn) |
| 52 to 53 | CCCc1c(OCC#CCSCCO)ccc(C(C)=O)c1O |
| 168 to 172 | COc1cc(OC)cc(-c2ncoc2-c2ccc(OC)c(O)c2F)c1 |
| 183 to 186 | OC1CCC2(c3c[nH]cn3)Cc3ccccc3C12 (stereo not drawn) |
| 160 | CC1(C)Cc2c(N)c(Cl)cc(C(=O)NC3CCN(CCCNc4nc(O)c5ccccc5n4)CC3)c2O1 |
| 83 to 85 | CCCCc1c(OCOC(=O)C(C)(C)C)n(-c2ccccc2)n(-c2ccccc2)c1=O |
| 103 to 104 | CCCCCCOc1ccc(NC(=O)NCCC(C)(C)C)cc1 |
| 160 to 161 | COc1ccc(CN2C(=O)C(Oc3ccccc3)C2c2ccc(C(=O)O)cc2)cc1OC (stereo not drawn) |
| 200 | O=C(Nc1ccc([N+](=O)[O-])cc1O)OCc1ccccc1 |
| 138 to 140 | O=C(O)CN(Cc1ccccc1)C(=S)CCc1nc2c(F)c(F)cc(F)c2s1 |
| > 300 | CC(C)OC(=O)C(=O)Nc1cc(Cl)ccc1O |
| 164 to 165 | CCCCCCOc1ccc2c(c1CCC)OC(CCC(=O)O)(CCC(=O)O)CC2=O |
| 171 to 172 | O=C(O)C1=CC(CF)(CF)Oc2ccc([N+](=O)[O-])cc21 |
| 136 to 138 | COC(=O)CCn1c(C)c(Cn2ccnc2)c2c(CCC(=O)O)cccc21 |
| 148 to 151 | CN[C@H]1CCN(c2c(-c3ccccc3)c(C)c(C#N)c3nc(C(=O)N(C)C)oc23)C1 |
| 102 to 104 | CCOC(=O)C(CCO)=C(c1cccc(OC)c1)c1cccc(OC)c1 |
| 101 to 103 | COc1cc(C)c(C(=O)c2c(Cl)cccc2Cl)cc1OC |
| 154 to 155 | CC(=O)Nc1ccc(F)c(-c2cccnc2)c1F |
| 216 to 217 | CC(C)N1C(=O)[C@@H](CC(=O)NCC#N)O[C@H](c2ccccc2Cl)c2cc(Cl)ccc21 (relative stereo) |
| 165 to 167 | CC(C)(C)OC(=O)N1CCN(c2ccc(Nc3nc(N)c(C(=O)c4c(Cl)cccc4Cl)s3)cc2)CC1 |

| melting point [°C] | Structure (SMILES) |
| --- | --- |
| 147 to 148 | CCn1c(=O)n(Cc2ccccc2)c(=O)c2cc(C(=O)OCc3ccccc3)sc21 |
| 137 to 139 | Cc1onc(NS(=O)(=O)c2cccc([N+](=O)[O-])c2)c1Br |
| 149 | CCOC(=O)n1cc(C#N)c(-c2cccc(Cl)c2F)c1 |
| 212 to 215 | Cc1c(C(=O)NCc2ccc3c(Br)c(OCc4nnn[nH]4)ccc3c2)oc2ccccc12 |
| 115 to 158 | CC(C)(C)OC(=O)NN=Cc1cccc(C#N)c1 |
| 57 | Cc1cc(CCCCCOc2ccc(C#N)cc2)on1 |
| 165 to 166 | OCc1c(CN2CCN(c3ccc(Cl)cc3Cl)CC2)nc2ccc(Cl)cn12 |
| 206 to 208 | CCOC(=O)COc1ccc(C(=O)Nc2cc(Cl)ccc2Sc2ccccc2-c2nnn[nH]2)cc1 |
| 255 to 256 | CC(=O)Oc1c(C)cc(C(=O)c2ccc(C(=O)c3cc(C)c(OC(C)=O)c(C)c3)cc2)cc1C |
| 143 to 145 | CC(=O)c1ccc2c(c1)Sc1cc(Br)ccc1O2 |
| 224 to 226 | CC1(c2cccs2)Cc2cc(O)c(Cl)c(Cl)c2C1=O (stereo not drawn) |
| 125 to 128 | COC(=O)C(Cc1cc(OC)cc(OC)c1)c1ccc(Oc2ccc(CC3SC(=O)NC3=O)cc2)cc1 (stereo not drawn) |
| 92 to 97 | Cc1ccc(Cn2c(=O)c3c(N4CCN(C)CC4)cc(Cl)cc3n(Cc3ccccc3)c2=O)cc1 |
| 192 to 194 | Cc1c(CC(C)C)sc2nc(C(Cl)(Cl)Cl)[nH]c(=O)c12 |
| 94 to 108 | COc1cc(C2CCN(C[C@@H](C)O)CC2)ccc1Nc1ncc2ccc(-c3cc(Cl)ccc3OC)n2n1 |
| 222 to 224 | CCCn1nc2c(N)nc3ccccc3c2c1CCCCC(=N)NO |
| 138 | COc1cc(-c2nc3ccc(OCCCN4CCCCC4)cc3n2Cc2ccccc2C(F)(F)F)cc(OC)c1OC |
| 261 to 263 | CS(=O)(=O)Nc1ccc(C#Cc2cnn3c(C(F)(F)F)cc(-c4ccc(C(F)(F)F)cc4)nc23)cn1 |
| 100 to 105 | COC(=O)c1ccc(=O)n(-c2ccccc2)c1 |
| 104 to 106 | CCOC(=O)c1c(-c2cc(C)c(O)c(C)c2)c(C)n2c1-c1cc(N)c(OC)cc1CC2 |
| 202 to 204 | Nc1ccc([N+](=O)[O-])cc1S(N)(=O)=O |
| 59 to 61 | C[Si](C)(C)OC(CCl)(Cn1cncn1)c1ccc(F)cc1F (stereo not drawn) |
| 208 | OC1CSC(Oc2cncc(-c3ccnc(F)c3)c2)C(O)C1O (stereo not drawn) |
| 160 | OCc1ccnc2cc(Cl)ccc12 |

| melting point [°C] | Structure (SMILES) |
| --- | --- |
| 194 to 196 | CC(C)(C)c1nc(C=C2SC(=S)N(N)C2=O)nc(C(C)(C)C)c1O |
| 54 to 55 | CCCCCSc1cc(C(C)(C)C)c(O)c(C(C)(C)C)c1 |
| 180 | O=C(c1cc(-c2ccncc2)c(N2CCOCC2)s1)c1ccc(Cl)cc1Cl |
| 175 to 177 | Cc1nc(SCC(N)=O)nc(C)c1Br |
| 137 to 139 | COc1c(C)c(N2CCN(c3ccc(F)cc3)CC2)c(C)c2c1OC(C)(C)C2 |
| 88 | CN1C(=O)C(C2=COc3ccccc3O2)=C(c2cn(C(=O)OC(C)(C)C)c3cc(OCc4ccccc4)ccc23)C1=O |
| 101 to 103 | Cc1ccsc1C(=O)C(=CN(C)C)c1ccccc1[N+](=O)[O-] |
| 109 to 110 | COc1ccc(N2C(=O)C(O[Si](C(C)C)(C(C)C)C(C)C)C2c2ccco2)cc1 (stereo not drawn) |
| > 290 | O=C(O)c1cccc2ncc(-c3ccccc3)cc12 |
| 215 to 218 | COc1cc2c(cc1C(F)(F)F)N(C(=O)Nc1ccc3c(ccn3Cc3ccncc3)c1)CC2 |
| > 225 | O=C1NC(=S)SC1=Cc1ccc(OCc2ccccc2)cc1 |
| 110 to 120 | O=C(O)c1ccc(CNC(=O)C2Cc3ccccc3N2S(=O)(=O)c2ccc(-c3cccc(C(F)(F)F)c3)cc2)c(Cl)c1 (stereo not drawn) |
| 139 to 140 | COc1ccc(-n2nc(OC(C)C)cc2-c2ccc(OCCNC(N)=O)cc2)cc1 |
| 128 to 132 | N#CC(O)C(Cc1ccccc1)N1C(=O)c2ccccc2C1=O (stereo not drawn) |
| 59 to 61 | COC(=O)C(C)(O)c1ccc(-c2ccccc2)c(F)c1 (stereo not drawn) |
| 144 to 145 | O=Cc1ccc2c(ccc3cc4ccccc4cc32)c1 |
| 143 to 146 | O=[N+]([O-])C=C1SCCCN1Cc1cccnc1 |
| 78.6 to 79.5 | O=C(O)CCCCCNC(=O)Cc1ccsc1 |
| 149 to 150 | CCN(CC)c1ccc(S(=O)(=O)N2CC(O)CC2=S)cc1 (stereo not drawn) |
| 175 | O=c1[nH]c2cc(Cl)c(Cl)cc2n1CCCO |
| 229 to 232 | O=C(O)C1CCc2c(oc3ccc([N+](=O)[O-])cc23)C1 (stereo not drawn) |
| 224 to 226 | CC(=O)Nc1cccc2c(-c3ccccc3)c([N+](=O)[O-])oc12 |
| 272 to 273 | CC(C)(C)c1ccc(C(=O)Nc2cn3nc(NC4CCCC4)ccc3n2)cc1 |
| 281 to 282 | Cc1ccc2c(c1)c(=O)c(-c1nnnn1C)cn2C |

| melting point [°C] | Structure (SMILES) |
| --- | --- |
| 75 | O=[N+]([O-])c1ccc(Cl)cc1NC1CCCC1 |
| 134 to 135 | C=CCc1nc(CC)n2nc(-c3cc(I)cnc3OCCCC)[nH]c(=O)c12 |
| 103 to 105 | CCOC(=O)c1cc(C#N)c(C)nc1NC |
| 187 | CCC(=O)OC(CC)c1nc2c(C(F)(F)F)cccc2c(O)c1C(=O)Nc1nccs1 (stereo not drawn) |
| 170 to 173 | Cc1cc(=O)c(-c2ccc(Oc3ccc(S(C)(=O)=O)cc3)cc2)c(C)o1 |
| 79 to 80 | COc1ccc(Cn2c(=O)cc(C(F)(F)F)n(C)c2=O)cc1 |
| 97 to 103 | O=C(Nc1ccc(Br)cc1CO)C(F)(F)F |
| 74 to 75 | COC(=O)C(C)Oc1ncn(-c2ccc(Cl)cc2Cl)n1 (stereo not drawn) |
| 166 to 168 | COc1ccc(C=CC(=O)O)cc1-c1cc2c(cc1OCCCCCC(=O)O)C(C)(C)CCC2(C)C |
| 124 to 126 | CCOC(=O)C1Oc2cc(C(=O)c3ccnn3C)c(Cl)c(Cl)c2O1 (stereo not drawn) |
| 218 to 228 | NS(=O)(=O)c1ccc2cc(O)c(O)cc2c1 |
| 117 to 120 | COc1ccc(C2=NN(Cc3cccnc3)C(=O)[C@H]3CC=CC[C@@H]23)cc1OC (relative stereo) |
| 143 to 145 | CCN(CC)C(=O)/C=C/CSc1nc(N)cc(Cl)n1 |
| 197 to 198 | N#CCCNC(=O)c1cccc(-c2ccc3c(c2)N(CCc2cccc(C(F)(F)F)c2)CC3)c1 |
| 188 to 189 | Nc1ccc2c(c1)OC1(CC1)C2=O |
| 84 to 86 | O=C(O)C(Oc1ccccc1)C(=O)NCC1CCN(c2ccncc2)CC1 (stereo not drawn) |
| 159 to 162 | Nc1cccc(C(=O)N(CCN2CCC(C(=O)c3ccc(F)cc3)CC2)c2ccc(F)cc2)c1 |
| 180 to 188 | Oc1ccc(CCc2cc(O)c(O)c(O)c2)cc1 |
| 139 to 141 | O=[N+]([O-])C=C1NCC(c2ccccc2)O1 (stereo not drawn) |
| 113 to 114 | COc1ccc([C@@H]2Sc3ccccc3N(CCN(C)C)C(=O)[C@@H]2OC(=O)c2ccc([N+](=O)[O-])cc2)cc1 |
| 98 | CC1(C)C=C(c2ccccn2)c2cc(Cl)c(Cl)cc2OC1 |
| 95 to 97 | COc1ccc(-c2ccc3nnc(-c4ccccc4OC)n3n2)cc1OC |
| 114 to 116 | CC1(C#N)CCCc2nc(-c3ccccc3)ccc21 (stereo not drawn) |

| Structure (SMILES) | melting point [°C] |
| --- | --- |
| Cc1cc(C)c(C(=O)P(=O)(CC(C)C)C(=O)c2c(C)cc(C)cc2C)c(C)c1 | 85 to 86 |
| CC1(C)NC(=O)N(c2ccc([N+](=O)[O-])c(Cl)c2)C1=O | 144 to 145 |
| CNc1ccc(C#CCCN2CC=C(c3ccccc3)CC2)nc1 | 164 to 166 |
